Measurements published in publication PMC10098121, “Amphipathic barbiturates as marine product mimics with cytolytic and immunogenic effects on head and neck squamous cell carcinoma cell lines” (Frontiers in Pharmacology, 2023).

Columns and labels:
UT-SCC-42B = experiment: High throughput drug screening (CellTiter-Glo, DSS); assay type: cell-based, human; details: for drug sensitivity score (DSS): 72 h, 10-100,000 nM, myogel, non-irradiated; for delta DSS (ΔDSS): DSS irradiated (2 Gy) minus DSS non-irradiated, >5 synergy, <–5 antagonism
Protocol: (§1) The MPMs were screened against a panel of […] different cell lines (HSC-3, UT-SCC-8, UT-SCC-24A, UT-SCC-24B, UT-SCC-42A, UT-SCC-42B and NOF) at the High Throughput Biomedicine Unit (HTB) at the Institute for Molecular Medicine Finland (FIMM). On day 1, black-walled 384-well plates were coated with 5 µl diluted myogel (0.5 mg/ml) per well using an automated reagent dispenser (MultiFlo FX, BioTek, Winooski, VT, United States). On day 2, 500 cells per well were seeded in 20 µl of complete media using the MultiFlo FX (BioTek), and the cells were left to adhere overnight. On day 3, the MPMs, cisplatin, DMSO and Benzethonium chloride were added to the cells using an automatic liquid handler (Echo 550, Labcyte Inc., San Jose, CA, United States). Cisplatin and the MPMs were added to yield five different concentrations in a ten-fold dilution series ranging from 10 to 100,000 nM. Each concentration was tested in triplicate wells. DMSO (0.1%) and benzethonium chloride (100 µM) served as negative and positive control, respectively. Three hours later, some of the plates were irradiated with 2 Gy in a gamma irradiator (OB29/4, STS, Braunschweig, Germany). All plates were taken to the irradiation room to ensure similar handling of the plates. 72 h later, the plates were cooled to room temperature before 25 µl of CellTiter-Glo 2.0 reagent (Promega, Madison, WI, USA) was added to each well using the MultiFlo FX (BioTek). Next, the plates were centrifuged for 5 min at 1,000 rpm before the luminescence signal was measured with the PHERAstar FS HT reader (BMG LABTECH GmbH, Ortenberg, Germany). The raw data was analyzed with the Breeze software (https://breeze.fmm.fi), which normalized the luminescence signal from treated cells against the signal from negative and positive control cells to calculate the percentage of inhibition and generate dose-response curves, which were then used to calculate drug sensitivity scores (DSS). The DSS is a parameter which combines the IC50, the slope of the dose-response curve, and the minimum and maximum responses into a single metric, as previously described ([Yadav et al., 2014]). Quality control was performed by calculation of the Z′-factor, which was >0.7 for all cell lines, indicating high quality of the assay ([Zhang et al., 1999]).

UT-SCC-24B = experiment: as above; assay type: cell-based, human; details: for drug sensitivity score (DSS): 72 h, 10-100,000 nM, myogel, non-irradiated; for delta DSS (ΔDSS): DSS irradiated (2 Gy) minus DSS non-irradiated, >5 synergy, <–5 antagonism
Protocol: as §1

UT-SCC-42A = experiment: as above; assay type: cell-based, human; details: for drug sensitivity score (DSS): 72 h, 10-100,000 nM, myogel, non-irradiated; for delta DSS (ΔDSS): DSS irradiated (2 Gy) minus DSS non-irradiated, >5 synergy, <–5 antagonism
Protocol: as §1

[1] = system: NOF (normal oral fibroblasts); experiment: as above; assay type: cell-based, human; details: for drug sensitivity score (DSS): 72 h, 10-100,000 nM, myogel, non-irradiated; for delta DSS (ΔDSS): DSS irradiated (2 Gy) minus DSS non-irradiated, >5 synergy, <–5 antagonism
Protocol: as §1

UT-SCC-24A = experiment: as above; assay type: cell-based, human; details: for drug sensitivity score (DSS): 72 h, 10-100,000 nM, myogel, non-irradiated; for delta DSS (ΔDSS): DSS irradiated (2 Gy) minus DSS non-irradiated, >5 synergy, <–5 antagonism
Protocol: as §1

HSC-3 = experiment: as above; assay type: cell-based, human; details: for drug sensitivity score (DSS): HSC-3, 72 h, 10-100,000 nM, myogel, non-irradiated; for delta DSS (ΔDSS): HSC-3, DSS irradiated (2 Gy) minus DSS non-irradiated, >5 synergy, <–5 antagonism
Protocol: as §1

UT-SCC-106A = experiment: as above; assay type: cell-based, human; details: for drug sensitivity score (DSS): 72 h, 10-100,000 nM, myogel, non-irradiated; for delta DSS (ΔDSS): DSS irradiated (2 Gy) minus DSS non-irradiated, >5 synergy, <–5 antagonism
Protocol: as §1

UT-SCC-8 = experiment: as above; assay type: cell-based, human; details: for drug sensitivity score (DSS): UT-SCC-8, 72 h, 10-100,000 nM, myogel, non-irradiated; for delta DSS (ΔDSS): UT-SCC-8, DSS irradiated (2 Gy) minus DSS non-irradiated, >5 synergy, <–5 antagonism
Protocol: as §1

[2] = system: seven HNSCC cell lines and one normal oral fibroblast cell line (NOF); experiment: High throughput drug screening, statements on the whole panel; assay type: cell-based, human; details: 72 h, DSS
Protocol: as §1

human red blood cells = experiment: Hemolysis assay; assay type: cell-based; details: for EC50: Homo sapiens, Erythrocyte, 1 h, 37°C, highest concentration tested 500 μM, average of three experiments, read-out: EC50 hemolytic activity against human red blood cells
Protocol: The hemolytic effect of the MPMs was determined using a hemolysis assay as previously described ([Paulsen et al., 2021]). Briefly, hemolysis was determined using a heparinized fraction (10 IU/mL) of freshly drawn blood. The blood collected in ethylenediaminetetraacetic acid-containing test tubes (Vacutest, KIMA, Arzergrande, Italy) was used for the determination of the hematocrit (hct). The heparinized blood was washed 3 × with pre-warmed phosphate-buffered saline (PBS) and adjusted to a final hct of 4%. MPMs in DMSO (50 mM) were added to a 96-well polypropylene V-bottom plate (NUNC, Fisher Scientific, Oslo, Norway) and serially diluted. The test concentration range was 4–500 μM with DMSO contents ≤1%. A solution of 1% triton X-100 was used as a positive control for 100% hemolysis. As a negative control, a solution of 1% DMSO in PBS was included. Red blood cells (1% v/v final concentration) were added to the well plate and incubated at 37°C and 800 rpm for 1 h. After centrifugation (5 min, 3000 g), 100 μL from each well was transferred to a 96-well flat-bottomed microtiter plate, and absorbance was measured at 545 nm with a microplate reader (VersaMaxTM, Molecular Devices, Sunnyvale, CA, United States). The percentage of hemolysis was calculated as the ratio of the absorbance in the MPM treated and surfactant-treated samples, corrected for the PBS background. Three independent experiments were performed, and EC50 values are presented as averages.

UT-SCC-24A cells = experiment: Flow cytometric detection of apoptosis (Annexin V/PI); assay type: cell-based, human; details: 24 h
Protocol: HSC-3 and UT-SCC-24A cells were seeded, 300,000 cells/well, in 6-well plates and left to adhere overnight. The media was then removed and replaced by 2 ml complete DMEM/F-12 containing 5, 7.5, 10 or 20 µM of MPM-2:0, MPM-6:0, MPM-3:2 or MPM-4:2, or 50 µM cisplatin. Some cells were left untreated. The cells were then incubated for 24 h. Next, the cell supernatants were collected before the cells were trypsinized and spun down with the supernatants. For the staining, an apoptosis detection kit was used (#88-8005-74, Thermo Fisher Scientific). The cells were washed once in PBS and once in 1x binding buffer before being incubated with FITC labeled Annexin V diluted 1:25 in 1 × binding buffer for 15 min. Next the cells were washed in 1 × binding buffer before being incubated with PI diluted 1:100 in 1 × binding buffer for at least 5 min before analysis was performed on the LSR Fortessa (BD Biosciences, CA, United States). Analyses were performed in FlowJo™ v.10 (https://www.flowjo.com/).

| Compound | drug sensitivity score (DSS) (UT-SCC-42B) | delta DSS (ΔDSS) (UT-SCC-42B) | drug sensitivity score (DSS) (UT-SCC-24B) | delta DSS (ΔDSS) (UT-SCC-24B) | drug sensitivity score (DSS) (UT-SCC-42A) | delta DSS (ΔDSS) (UT-SCC-42A) | drug sensitivity score (DSS) [1] | delta DSS (ΔDSS) [1] | drug sensitivity score (DSS) (UT-SCC-24A) | delta DSS (ΔDSS) (UT-SCC-24A) | drug sensitivity score (DSS) (HSC-3) | delta DSS (ΔDSS) (HSC-3) | drug sensitivity score (DSS) (UT-SCC-106A) | delta DSS (ΔDSS) (UT-SCC-106A) | drug sensitivity score (DSS) (UT-SCC-8) | delta DSS (ΔDSS) (UT-SCC-8) | potency / effect on viability over the cell line panel (in words) [2] | EC50 (human red blood cells) [µM] | Annexin V−/PI+ population (in words) (UT-SCC-24A cells) | further results |
| --- | --- | --- | --- | --- | --- | --- | --- | --- | --- | --- | --- | --- | --- | --- | --- | --- | --- | --- | --- | --- |
| NCCN1C(=O)N(CCN)C(=O)C(CCCc2ccccc2)(CCCc2ccccc2)C1=O [MPM-2:0] | 18,7 | -0,1 | 18,3 | -0,1 | 19 | -0,7 | 18,3 | -0,7 | 18,7 | -0,7 | 19 | -0,7 | 18 | -0,5 | 19,2 | 0,6 | had the highest DSS | 379 |  |  |
| CN(C)CCCN1C(=O)N(CCCN(C)C)C(=O)C(CCCc2ccccc2)(CCCc2ccccc2)C1=O [MPM-3:2] | 15,7 | 0,3 | 18,4 | 0,1 | 16 | 0,6 | 19,3 | -1,6 | 17,9 | -0,2 | 17,9 | -0,2 | 18,6 | -0,2 | 17,8 | 0,1 | had the highest DSS | > 500 | induced a large population of Annexin V−/PI + UT-SCC-24A cells |  |
| NCCCCCCN1C(=O)N(CCCCCCN)C(=O)C(CCCc2ccccc2)(CCCc2ccccc2)C1=O [MPM-6:0] | 18,4 | -0,5 | 18,3 | 0,1 | 17,9 | 0,3 | 18 | -0,3 | 18,6 | -0,2 | 17,8 | 0,7 | 17,9 | -0,4 | 19,5 | -0,8 | had the highest DSS | 92 |  | hemolytic activity against red blood cells (in words) (human red blood cells; test range 4–500 μM): the most hemolytic compound |
| N.N.[Cl][Pt][Cl] [Cisplatin, cisplatin, reference compound] | 7,7 | -0,6 | 11,6 | 0,7 | 7,1 | -0,1 | 9,6 | -1,9 | 8,9 | -0,9 | 15,6 | -0,8 | 9 | 0,3 | 16,8 | -0,8 |  |  |  | apoptotic (Annexin V+/PI−) population (in words) (UT-SCC-24A cells; cisplatin 50 µM, MPMs 5-20 µM): small, but clearly apoptotic (Annexin V+/PI−) population |
| CN(C)CCCCN1C(=O)N(CCCCN(C)C)C(=O)C(CCCc2ccccc2)(CCCc2ccccc2)C1=O [MPM-4:2] | 16,6 | -0,4 | 18,9 | -0,5 | 17 | 0,4 | 22,6 | 1,2 | 18,4 | -0,6 | 18,2 | 0,3 | 19,5 | -0,2 | 18,1 | 0,5 | had the highest DSS | > 500 | induced a large population of Annexin V−/PI + UT-SCC-24A cells |  |
